From publication PMC5799093, “Proceedings of Réanimation 2018, the French Intensive Care Society International Congress” (Annals of Intensive Care, 2018) come the findings set out here.

Where two headings read alike, the source gives them in different places.

Data set [1] in a line: Acute amitriptylin and clomipramine poisonings in the ICU, clinical features and pharmacokinetics. As to conditions: median; AMI [0.4 + 1.4], dose 1.5 g; CLO [0.5 + 1.4], dose 3.0 g.
Data set [2] can be described thus: Delayed neuropsychiatric sequelae after carbon monoxide poisoning in outpatients.
The test system of data set [3] is Extended spectrum betalactamase producing Enterobacteriaceae. Nature of the data set: Antibiotic resistance of ESBL producing Enterobacteriaceae (P-147). It is filed as cell-based. As to conditions: isolates 2015 and 2016.
A short description of data set [4]: Residual serum concentrations of piperacillin and amoxicillin and neurological disorders (HPLC MS). It is filed as in vivo, critically ill patients. How it is done: Patients and methods: This study was carried out retrospectively during the period 01.01.2015 to 08.02.2017, in patients hospitalized in the medical ICU-CHU Rouen with PTM.
Data set [5] can be described thus: Beta-lactam plasma concentrations in children with severe sepsis or septic shock (HPLC). Conditions: current standard dosing.
The next data set relates to Candida isolates. As to the kind of experiment: Antifungal susceptibility of Candida isolates, Fungitest broth dilution. It counts as cell-based, Candida spp. How it is done:
Patients and methods: Our study is a retrospective review of 17 severely burned patients admitted to the burn unit of the Ben Arous Traumatology and Burns Center with one or more positive culture sites for Candida, during the 16-month period from May 2016 through August 2017. A total of 42 isolates were thus obtained. […] Since echinocandin and anidulafungine were recently introduced in Tunisia, the susceptibility to these antifungal classes was tested for only one patient from our cohort.

Data set [6] relates to carbapenemase-producing Enterobacteriaceae. Nature of the data set: Antibiotic susceptibility of Enterobacteriaceae with decreased susceptibility to carbapenems. As to conditions: for resistant rate: CA-SFM 2015. It is filed as cell-based.
A short description of data set [7]: Cyproheptadine poisoning, retrospective series (P-180). It counts as in vivo, human. How it is done: Patients and methods: Retrospective study was performed between January 2008 and APRIL 2017. Epidemiological data clinical data and outcome were reviewed.
For data set [8], the system named is cardiogenic shock patients. As to the kind of experiment: OPTIMA CC double-blind randomized trial, epinephrine vs norepinephrine in cardiogenic shock after myocardial infarction. It counts as in vivo. An excerpt:
Patients and methods: Multicenter, double-blind, randomized trial in 8 french ICU. Cardiogenic shock patients due to myocardial infarction treated by PCI were randomized to receive epinephrine or norepinephrine to maintain MAP at 70 mmHg. Dobutamine was introduced at the physician discretion according to a combination of parameters—echocardiographic parameters, cardiac index, lactate clearance, SVO2 and Swan-Ganz derived parameters.

The subject of data set [9] is patients with severe alcohol withdrawal syndrome. As to the kind of experiment: Continuous-infusion midazolam for severe alcohol withdrawal syndrome, complications. It is filed as in vivo. From the text: Patients and methods: We retrospectively reviewed the medical records of all patients hospitalized for alcohol withdrawal syndrome between 2006 and 2016. Only those who received continous-infusion of BZD, associated with close clinical monitoring and the evaluation of RASS and Cushman scores, without systematic recourse to mechanical ventilation, were included.

Data set [10] in a line: Acute olanzapine poisoning in ICU (P-182). It counts as in vivo, human. As for the experimental part: Patients and methods: Retrospective analysis of all cases of olanzapine intoxication admitted in 12-bed teaching ICU between January 2013 and Decembre 2017. Inclusion criteria were patient age ≥ 14 year, acute olanzapine intoxication, the intoxication severity was assessed by the Poisoning Severity Score (PSS) of the European Association of Poison Centres and Clinical Toxicologists. The evaluation of electrocardiograms was performed in the first day of hospitalization. The durations of QRS and QTc was measured and arrhythmias and conduction disorders was identified.

The subject of another data set is Acinetobacter baumannii. It is filed as cell-based. As for the experimental part: Patients and methods: From January 2012 to December 2016, a total of 2,182 non repetitive strains were isolated from blood cultures. Incubation of blood culture vials and the detection of bacterial growth were performed by the BACTEC system. All Isolated organisms were identified on the basis of standard microbiological techniques. Antibiotic susceptibility testing was carried out by the agar disk diffusion method, and susceptibility results were interpreted using clinical breakpoints according to CA-SFM 2013 and 2015 guidelines. Data were analyzed using the SIR-system. Minimum inhibitory concentrations of colistin, imipenem and vancomycin were determined using the Etest® method (bioMérieux).

The test system of the next data set is Pseudomonas aeruginosa. As to the kind of experiment: Disk diffusion susceptibility of P. aeruginosa isolated from burned patients (P-48). It is filed as cell-based. Conditions: 485 strains from burned patients 2012-2015, disk diffusion, FSM breakpoints.
The test system of another data set is anti-Xa activity. Nature of the data set: Pharmacokinetics of unfractionated heparin (anti-Xa activity) in children under ECMO (P-171). It is filed as in vivo, human (children). As for the experimental part:
Patients and methods: This is a single center retrospective study from March 2015 to September 2016. Were included children (< 18 years old age) who were under ECMO for refractory hemodynamic failure related to (i) myocarditis or (ii) septic shock. Anti-Xa activity time-courses were analyzed using a non linear mixed effects approach with Monolix version 2016R.

Take `CN(C)CCCN1c2ccccc2CCc2ccc(Cl)cc21` [CLO, clomipramine]: the plasma concentration in [1] came to 700 ng/mL.

On to `[C-]#[O+]` [CO, Carbon monoxide], for which the “mean serum HbCO level on admission” value in [2] (83 patients) came out at 15 ± 8%. For the same molecule, the persistent headaches in [2] (among identified disorders) stood at 39%. Also, in data set [2] (in vivo), the anxiety-depressive disorders amounted to 39%, the cognitive disorders was determined as 22%, the irritability is 22% and the “mean onset time of symptoms” value is given as 5 ± 3 months. Further, the “prevalence of patients with delayed neuropsychiatric sequelae” value in [2] (telephone contact at 16 ± 9 months) was 26%.

In data set [3], `CNC(C)C1CCC(N)C(OC2C(N)CC(N)C(OC3OCC(C)(O)C(NC)C3O)C2O)O1` (centres unmarked) [Gentamicin] displayed a rate of resistance of 50%.

Regarding `CC1(C)S[C@@H]2[C@H](NC(=O)[C@H](N)c3ccc(O)cc3)C(=O)N2[C@H]1C(=O)O` [amoxicillin], in [4] (80% specificity and sensitivity), the “residual concentration associated with occurrence of neurological disorders” value is “greater than 40 mg L^−1”. In [4] (HPLC MS), the “residual serum concentration, patients with neurological disorders or wakefulness delays” value was found to be 157 ± 72 mg L^−1 and the “residual serum concentration, patients without neurological disorders” value was found to be 35.8 ± 13.0 mg L^−1. For the same molecule, the “patients with insufficient plasma concentration” value in data set [5] was found to be 86%.

Regarding `C[C@@H]1[C@H](O)[C@@H](C)/C=C/C=C/C=C/C=C/C=C/C=C/C=C/[C@H](O[C@@H]2O[C@H](C)[C@@H](O)[C@H](N)[C@@H]2O)C[C@@H]2O[C@](O)(C[C@@H](O)C[C@@H](O)[C@H](O)CC[C@@H](O)C[C@@H](O)CC(=O)O[C@H]1C)C[C@H](O)[C@H]2C(=O)O` [amphotericin B], the resistant strains result with Candida isolates is listed as “Only one strain was resistant”.

With `C[C@H]1[C@H](NC(=O)/C(=N\OC(C)(C)C(=O)O)c2csc(N)n2)C(=O)N1S(=O)(=O)O` [aztreonam], the resistant rate in [6] is given as 67%.

`Cc1nnc(SCC2=C(C(=O)O)N3C(=O)[C@@H](NC(=O)Cn4cnnn4)[C@H]3SC2)s1` [cefazoline, cefazolin]: the “patients with insufficient plasma concentration” value in data set [5] was 25%.

`CO/N=C(\C(=O)N[C@@H]1C(=O)N2C(C(=O)O)=C(COC(C)=O)CS[C@H]12)c1csc(N)n1` [cefotaxime] gave a resistant rate in data set [6] of 97%.

`CN1CCC(=C2c3ccccc3C=Cc3ccccc32)CC1` [cyproheptadine]: in data set [7] (56 patients), the delirium stood at 20%, the outcome is on record as “favorable in all cases” and the “patients with peripheral anti-cholinergic symptoms” value is recorded as “Forty two”. Further, the “median delay of symptoms onset” value in [7] (56 patients, mean ingested dose 94 mg, range [1–14]) is reported as 3 h. Further, in [7] (in vivo), the “correlation between coma and assumed ingested dose” value is recorded as “no correlation”. The “mean duration of mechanical ventilation” value in data set [7] (six ventilated patients, ± 4) amounted to 17 h.

Turning to `CNC[C@H](O)c1ccc(O)c(O)c1` [epinephrine], the “arterial pH and lactate” value in data set [8] (H2 to H24) is “lactic acidosis from H2 to H24”. Besides, the “cardiac index and cardiac power index” value in data set [8] (epinephrine vs norepinephrine group) is given as “increased significantly more”. Further, in [8] (in vivo), the ECMO use is recorded as 11%, the “cardiac double product (surrogate of myocardial oxygen consumption)” value is recorded as “increased”, the heart rate evolution entry is recorded as “increased significantly” and the incidence of arrhythmia was found to be 41%. The mortality in data set [8] (in vivo) is on record as 52%. Also, in data set [8] (titrated to MAP 70 mmHg, epinephrine n = 27, norepinephrine n = 30), the “incidence of refractory shock” value was 37%.

For the molecule `OC(Cn1cncn1)(Cn1cncn1)c1ccc(F)cc1F` [fluconazole], in the data set on Candida isolates, the intermediate isolates is on record as 11.1%, the resistant isolates came to 11.1% and the susceptible isolates worked out at 77.8%.

As for `C[C@@H]1O[C@@H]1P(=O)(O)O` [fosfomycin], the susceptibility in [6] (colistin excepting with Proteus) is 65%.

`CCC(C)n1ncn(-c2ccc(N3CCN(c4ccc(OCC5COC(Cn6cncn6)(c6ccc(Cl)cc6Cl)O5)cc4)CC3)cc2)c1=O` (centres unmarked) [itraconazole] came in with an intermediate isolates in the data set with Candida isolates of 81.5%.

`CC(=O)N1CCN(c2ccc(OCC3COC(Cn4ccnc4)(c4ccc(Cl)cc4Cl)O3)cc2)CC1` (centres unmarked) [ketoconazole]: in the data set on Candida isolates, the intermediate isolates was found to be 40.7%.

`C[C@@H](O)[C@H]1C(=O)N2C(C(=O)O)=C(S[C@@H]3CN[C@H](C(=O)N(C)C)C3)[C@H](C)[C@H]12` [meropenem]: the “patients with insufficient plasma concentration” value in data set [5] came to 50%.

For `Clc1ccc(COC(Cn2ccnc2)c2ccc(Cl)cc2Cl)c(Cl)c1` (centres unmarked) [miconazole], in the data set with Candida isolates, the intermediate isolates worked out at 33.3%.

Take `Cc1ncc2n1-c1ccc(Cl)cc1C(c1ccccc1F)=NC2` [midazolam]: the “OR of intubation and or pneumonia for maximum perfusion velocity > 8 mg h” value in [9] (IC 95% (2.11–168.15)) is 18.83. In addition, the “patients developing pneumonia and or requiring intubation” value in data set [9] (continuous infusion, median maximum 8 mg h, n = 104) amounted to 12%. Besides, in data set [9] (n = 104), the “cardiac arrest and death” value is “No cardiac arrest and death was observed”; the patients with seizures came out at 8%.

In the case of `Cc1cc2c(s1)Nc1ccccc1N=C2N1CCN(C)CC1` [olanzapine, Olanzapine], the “mean duration of prolonged QTc” value in [10] (5 cases) is 460 ± 28 ms. In addition, the “Poisoning Severity Score moderate, monointoxication” value in [10] (8 patients, 3 cases) stood at 37.5%. Also, in data set [10] (8 patients, 4 cases), the “Poisoning Severity Score severe, monointoxication” value is 50%. Moreover, in data set [10] (24 patients), the “Poisoning Severity Score fatal” value is 1 case. Also, the “Poisoning Severity Score moderate” value in data set [10] (24 patients, 9 cases) amounted to 37.5%. Also, the “Poisoning Severity Score severe” value in data set [10] (24 patients, 14 cases) was found to be 58%. In data set [10] (n = 8 of 24), the agitation turned out to be 33%. In [10] (n = 15 of 24), this molecule showed a miosis of 62% and a tachycardia of 62%. Further, in [10] (of 24), the “Coma Glosgow Scale < 12” value came out at 14 cases, the mechanical ventilation required is listed as 58% and the “prolonged QTc” value amounted to 5 cases. Besides, for the setting “human, in vivo”, the “QRS enlargement on the ECG” value is 10%, the QT widening worked out at 23%, the abolished tendon reflexes came out at 31% and the increased tendon reflexes is 28%. In addition, under “human, in vivo”, the mydriasis came out at 10%, the myorelaxation worked out at 68%, the myosis was found to be 39% and the seizures entry is on record as “No seizure was observed”. Further, the “plasma concentration on admission” value (median [0.185 + 0.820], ingested dose 200 mg [110 + 333], n = 71) came out at 310 ng/mL. Also, the Glasgow coma score (median [percentiles 25 + 75], multidrug ingestion) is 4 [3 + 8]. Also, the elimination in overdose result (non-compartmental analysis) is “prolonged olanzapine elimination at elevated concentrations”. In addition, the “died in the ICU” value (patients with pre-hospital cardiac arrest) is reported as 4%.

For the molecule `CO[C@H]1/C=C/O[C@@]2(C)Oc3c(C)c(O)c4c(O)c(c(/C=N/N5CCN(C)CC5)c(O)c4c3C2=O)NC(=O)/C(C)=C\C=C\[C@H](C)[C@H](O)[C@@H](C)[C@@H](O)[C@@H](C)[C@H](OC(C)=O)[C@@H]1C` [rifampicin], the resistance rate with Acinetobacter baumannii (by 2016) is 67%; in the data set with Acinetobacter baumannii (in 2014), 15%.

Molecule `CC1(C)S[C@@H]2[C@H](NC(=O)[C@H](C(=O)O)c3ccsc3)C(=O)N2[C@H]1C(=O)O` [ticarcillin] came in with a strains resistant with Pseudomonas aeruginosa of 69%.

Regarding unfractionated heparin, in the data set with anti-Xa activity (12 children under ECMO, one-compartment, scaled to 70 kg), the “typical clearance (CLTYP)” value was determined as 2.42 L/h. Also, the “typical volume of distribution (VTYP)” value in the data set on anti-Xa activity (12 children under ECMO, scaled to 70 kg) is on record as 5.1 L. The “samples with anti-Xa activity > 0.6 IU mL” value with anti-Xa activity (37 of 214 samples) came out at 17%. In addition, the “samples with anti-Xa activity < 0.4 IU mL” value in the data set with anti-Xa activity (81 of 214 samples) came to 38%. Moreover, the “samples with anti-Xa activity in the target (0.4 to 0.6 IU mL)” value with anti-Xa activity (96 of 214 samples, 12 children) worked out at 45%. In the data set on anti-Xa activity (of 12), this molecule registered a bleeding of 2 children and a thrombosis of 4 children.
